Assay results reported in US20020151487A1, “Method and reagents for epithelial barrier formation and treatment of malignant and benign skin disorders by modulating the notch pathway” (Loyola University Chicago, priority 2000, published 2002).

Tests used:
keratinocytes = assay: Terminal differentiation of cultured keratinocyte monolayers; assay type: cell-based, human; details: for loricrin and involucrin immunostaining: 2 mM calcium keratinocyte cultures; for stratification of keratinocyte monolayer: 2 mM calcium, as early as 3 days following addition
Protocol: (§1) Keratinocyte cultures were initiated from discarded neonatal foreskins, in which epidermis was separated from dermis using dispase (Mukherjee et al, Chemical and Structural Approaches to Rational Drug Design (Weiner et al., eds.) CRC Press, pp. 237-61 (Boca Raton, 1994). Keratinocytes were induced to proliferating using a low calcium (0.07 mM), serum-free medium (KGM, Clonetics Corp., San Diego, Calif.). Keratinocytes were grown in 10 cm plastic petri dishes, and passaged at 60-70% confluency, and maintained in a humidified incubator at 37° C. with 5% CO2. Keratinocytes were also grown in 8-well Lab Tek Chambers as previously described (Mukherjee et al., supra). Keratinocytes were used between 2 and 4 passages. In some experiments, keratinocytes were pre-treated with KGM containing an elevated calcium ion concentration (i.e. 2 mM) for 24 hrs prior to addition of JAG-1 peptide, or other stimuli as indicated.
(§2) Portions of the epidermal equivalents were fixed in 10% neutral buffered formalin, embedded in paraffin and routinely stained with 1% hematoxylin and eosin. […] When using Lab Tek cultures, these slides were rinsed in PBS and fixed with ice-chilled acetone for 10 mins prior to addition of primary antibodies. Cryostat sections of skin also were fixed using ice-cold acetone. In all cases, a highly sensitive avidin biotin peroxidase procedure (Vectastain Kit, Vector Labs, Burlingame, Calif.) was used with a positive red reaction product obtained using […] as the chromagen.

epidermal equivalents = assay: Living epidermal equivalent model system; assay type: cell-based, human; details: for terminal differentiation and cornification: continuously submerged cultures, 4 days later
Protocol: Reconstituted epidermis, known as epidermal equivalents were purchased from MatTek Corp., Ashland, Mass.
as §2
For these experiments a living epidermal equivalent model system was used, because it provided an opportunity to examine the individual components of the Notch pathway (i.e. Notch ligand and receptors) before, and after, induction of differentiation for keratinocytes maintained in a multi-layered or stratified configuration that closely resembles normal human skin. Epidermal equivalents consist of keratinocytes grown to produce a multi-layered structure that are initially prepared using submerged keratinocytes. Following this initial preparation, the cultures are exposed to an air-liquid interface in a moistened chamber for three days that can initiate the early stage of differentiation, designated as day 0. Under these conditions, approximately 5-7 layers are produced with a progressive flattening of the top level keratinocytes, which can include occasional cells with keratohyalin granules, and focal appearance of loricrin positive cells and corneocytes. When cultures arrived at day 0, they can either be re-submerged in medium or lifted-up and maintained on a support to create an air-liquid interface within a tissue culture well. After lifting of the cultures, the multi-layered keratinocytes are exposed to the air, with the subjacent membrane being moistened and fed only from the underlying medium within the well. Lifting the cultures at day 0, triggers the terminal differentiation process, which typically is completed within about 5 to about 7 days.

IKKα = IKKα immunocomplex kinase assay; assay type: cell-based, human; details: for kinase activity of IKKα: substrate GST-IκBα (1-54), after 30 and 60 minutes
Protocol: For immunoprecipitation 2 μg of anti-IKKα and anti-IKKβ were added to the whole cell lysate for 2 hours on ice. 30 μl of protein A-G sepharose beads were added and incubated at […] for 90 minutes. Beads were washed 3 times in wash buffer, and the beads were boiled with 2xSDS sample buffer. Kinase activity was performed using GST-IκBα as substrate (Hu et al., Science, 284, 316-20 (1999)).

MOM-2b cells = assay: Invasion through MATRIOEL coated filters; assay type: cell-based; details: MOM-2b cells pretreated overnight with 100 nM
Protocol: In a second experiment, MOM-2b cells were pretreated overnight with 100 nM compound E or untreated culture medium and then analyzed for invasive behavior by culturing them on MATRIOEL™ coated filters, into which aggressive melanoma will invade. After 20 hours, cells that have not invaded through the filters were discarded and cells that had migrated into the top of the filters were stained, lysed, and then assayed for absorbance at 350 nm to quantitate the number of cells that had invaded through the filter.

Notch-1 = assay: Western blotting for Notch-1 in MOM-2b cells; assay type: cell-based; details: 100 nM
Protocol: Two cultures of MOM-2b cells (an aggressive melanoma cell line) were cultured in standard medium alone or in the presence of 100 nM of a gamma secretase inhibitor, which interferes with Notch signaling (Supont Compound E; Seiffaert et al., J. Biol. Chem., 275, 34086 (2000)). The cells then were lysed and assayed for the presence of Notch-1 by Western blotting.

Cytotoxicity = assay type: cell-based; details: concentrations <300 nM
Notch 1 = assay: Western blot for Notch 1 in keratinocytes; assay type: cell-based, human; details: 6 hours and 24 hours after addition
Protocol: (§3) Whole cell lysates, or nuclear and cytoplasmic extracts, were prepared to detect different proteins as previously described (Chaturvedi et al., J. Biol. Chem., 274, 2358-67 (1999)). Briefly, keratinocytes were washed with ice cold phosphate buffered saline (PBS), and harvested by scraping the monolayers into 1 ml PBS, and pelleted in a […] microcentrifuge tube. The cell pellet was suspended in 400 μl of buffer A (10 mM HEPES, 10 mM KCl, 1 mM EDTA, 1 mM EGTA, 1 mM dithiothreitol, 0.5 mM phenylmethlysulfonyl fluoride, and 5 μg/ml leupeptin). After 20 min incubation on ice, 25 μl of 10% Nonidet P-40 was added and then centrifuged briefly. The supernatant represented the cytoplasmic extracts. The nuclear pellet was resuspended in 60-80 μl of buffer C (20 mM HEPES, 0.4 M NaCl, 1 mM EDTA, 1 mM EGTA, 1 mM dithiothreitol, 0.5 mM phenylmethylsulfonyl fluoride, and 5 μg/ml leupeptin) and incubated at 4° C. with shaking for 15 min. The nuclear debris was removed by centrifugation at 4° C.
(§4) For the whole cell lysate, cells were washed with cold PBS and incubated in CHAPS buffer on ice for 15 min. After centrifugation at 4° C., the supernatants were saved as whole cell lysate. The protein concentration of each sample was determined with Bio-Rad protein assay reagent. […]

p50 and p65 subunits = assay: Western blot of keratinocyte nuclei for NF-κB subunits; assay type: cell-based, human; details: keratinocytes in 2 mM calcium; 30 minutes and 1 hour after addition
Protocol: as §3, §4

PKC-alpha = PKC-alpha localization in keratinocytes; assay type: cell-based, human
Protocol: as §2

NF-κB [1] = assay: Electromobility shift assay (EMSA) of keratinocyte nuclear extracts; assay type: cell-based, human; details: heterodimers p50 and p65 and p50/p50 homodimers
Protocol: EMSA were done as described previously (Qin et al., supra). 5 μg of nuclear proteins were incubated on ice with 1 μg of poly(dI-dC) (Amersham Pharmacia Biotech) in a buffer containing 10 mM HEPES, 60 mM KCl, 1 mM dithiothreitol, 1 mM EDTA, and 4% Ficoll for 10 min. The ^32P-labeled double strand NF-κB binding oligonucleotide (10^5 cpm) was then added to the reaction mixture for an additional 20 min on ice. The NF-κB oligonucleotide had the following sequence: SEQ ID NO:14 (5′-[…]-3′). For experiments involving supershift analysis, 2-4 μg of polyclonal antibodies against different subunits of NF-κB (Santa Cruz Biotech) were incubated with nuclear proteins for 30 min on ice prior to addition of ^32P-labeled NF-κB probe. All the reaction mixtures were resolved on 4% polyacrylamide gels.

NF-κB [2] = assay: NF-κB luciferase assay in transfected keratinocytes; assay type: cell-based, human
Protocol: as §1
To perform the luciferase-based NF-κB assays, normal keratinocytes were seeded in 6-well plates as previously described (Qin et al., supra). At approximately 50% to 60% confluence, the cells were co-transfected with 0.8 μg of pNF-κB-LUC vector (CLONTECH Laboratories, Palo Alto, Calif.) containing a firefly luciferase gene with K enhancer and 0.2 μg of PRL-TK plasmid DNA which contains Renella Luciferase gene to normalize the transfection efficiency. The same amount of control vector in which the κ enhancer was removed from pNF-κB-LUC was also used to co-transfect the cells.
DNA was transfected into keratinocytes using Fu-Gene 6 Transfection Reagent (Roche Molecular Biochemicals) according to the manufacturer's protocol. After 36 hours of transfection, cells were treated with either TNF-α (10^3 U/ml; R&D Systems, Minneapolis, Minn.) or the indicated peptides.
The preparation of cell lysate and luciferase activity measurements were made with DUAL LUCIFERASE™ Reporter Assay System (Promega, Madison Wis.) according to the manufacturer's instructions. The sample was placed in a TD-20/20 luminometer (CLONTECH Laboratories) for detection of light intensity.

IκBα = assay: Western blot of keratinocyte cytoplasmic extracts for IκB proteins; assay type: cell-based, human
Protocol: as §3
For the whole cell lysate, cells were washed with cold PBS and incubated in CHAPS buffer on ice for 15 min. After centrifugation at 4° C., the supernatants were saved as whole cell lysate. The protein concentration of each sample was determined with Bio-Rad protein assay reagent. 30 μg of protein were loaded on 8-12.5% SDS-polyacrylamide gel, transferred to Immobilon-P (polyvinylidene difluoride) membrane and blocked in 5% powdered milk in TBST (50 mM Tris, pH 7.5, 150 mM NaCl, 0.01% Tween 20). The membrane was incubated with primary antibody overnight at 4° C. in 2.5% powdered milk in TBST and then was washed extensively with TBST, and incubated with 1:1500 anti-rabbit or mouse-HRP (Amersham Pharmacia Biotech). Proteins were visualized with the ECL detection kit (Amersham Pharmacia Biotech). The equivalent loading of proteins in each well was confirmed by Ponceau staining.

[3] = system: Jagged-1 and Notch receptors; assay: Immunostaining of cultured keratinocyte monolayers for Jagged-1 and Notch receptors; assay type: cell-based, human
Protocol: as §1, §2

[4] = re-submerged day 0 cultures, observed on day 5

With “R-JAG: second peptide with agonist activity (SEQ ID NO:12) derived from the same region of Jagged-1, with specific amino acid changes (CDDYYYGFGCNKFGRPRDD; r-JAG1 Notch ligand)” the “loricrin and involucrin immunostaining” value (keratinocytes) was “strong induction”, the “stratification of keratinocyte monolayer” value (keratinocytes) was “began piling-up to form 3-dimensional stratified clusters” and the “terminal differentiation and cornification” value (epidermal equivalents; 40 μM added on day 0) was “triggered terminal differentiation and cornification”. For the same molecule, the “kinase activity of IKKα” value (IKKα) was “did activate”.
In the case of `C[C@H](NC(=O)Cc1cc(F)cc(F)c1)C(=O)N[C@H]1N=C(c2ccccc2)c2ccccc2N(C)C1=O` [compound E], the “OD350 (cells invaded through the filter)” value (MOM-2b cells; after 20 hours) is reported as 0.378, the “inhibition of aggressive behavior in melanoma cells” value (MOM-2b cells; versus control culture) is reported as 75% and the “activation of Notch-1” value (Notch-1) is reported as “completely blocked”. The cytotoxicity (Cytotoxicity) was “did not exhibit cytotoxicity”.
For “JAG-1: synthetic peptide with Notch agonist activity corresponding to Jagged-1 residues 188-204 (SEQ ID NO:11), part of the DSL region (CDDYYYGFGCNKFCRPR; JAG-1 Notch ligand)”, the “Notch 1 levels” value (Notch 1) was “decreased to barely detectable levels”, the “loricrin and involucrin immunostaining” value (keratinocytes) was “strong induction” and the “stratification of keratinocyte monolayer” value (keratinocytes) was “began piling-up to form 3-dimensional stratified clusters”. The “intranuclear levels of p50 and p65 subunits” value (p50 and p65 subunits) was “markedly enhanced intranuclear levels”, the PKC-alpha localization (PKC-alpha; epidermal equivalents, upper layers of differentiated keratinocytes) was “plasma membrane localization for PKC-alpha” and the “PKC-alpha translocation (PKC activation)” value (PKC-alpha; keratinocyte monolayers) was “induced translocation of PKC-alpha from the cytoplasm to the plasma membrane”. For the same molecule, the “NF-κB transcriptional activity (binding to NF-κB probe)” value (NF-κB [1]) was “can activate NF-κB transcriptional activity”, the “NF-κB activation (luciferase)” value (NF-κB [2]; high calcium (2 mM) medium) was “did trigger NF-κB activation” and the “NF-κB activation (luciferase)” value (NF-κB [2]; low calcium (0.07 mM) medium) was “not low calcium conditions”. The “terminal differentiation and cornification” value (epidermal equivalents; 50 μM added on day 0) was “triggered terminal differentiation and cornification”, the “apoptosis in submerged epidermal equivalent” value (epidermal equivalents; [4]) was “reduced the apoptotic process” and the “loricrin expression in submerged epidermal equivalent” value (epidermal equivalents; [4]) was “diffuse loricrin expression”. The “stratum corneum formation in submerged epidermal equivalent” value (epidermal equivalents; [4]) was “thick stratum corneum layer”, the “relatively low constitutive level of IκBα” value (IκBα; 7-minute to 6-hour time points) was “slightly reduced” and the “cytoplasmic IκBα level (most prominent inhibitory protein)” value (IκBα; after 24 hours) was “no consistent decline”. The “relatively low constitutive level of IκBα” value (IκBα; after 24 hours) was “became undetectable”, the “amount of IKKα present” value (IKKα; immediately following stimulation) was “not accompanied by any significant change” and the “kinase activity of IKKα” value (IKKα) was “did activate”. The Notch-1 cellular localization ([3]; 24 hours after stimulation) was “re-distributed to the cytoplasm”, the “Notch 3 immunolocalization” value ([3]; after addition of peptide) was “disappearance of both membrane and cytosolic Notch 3” and the “Notch 4 immunolocalization” value ([3]; after peptide stimulation) was “loss of membrane and cytosolic Notch 4”. For the same molecule, the Jagged-1 cellular localization ([3]; keratinocytes in 2 mM calcium, twenty-four hours after addition) was “loss of this plasma membrane staining”.
For TNF-α [reference compound], the “NF-κB activation (luciferase)” value (NF-κB [2]; high calcium (2 mM) medium) was “positive control for NF-κB activation”, the “NF-κB activation (luciferase)” value (NF-κB [2]; low calcium (0.07 mM) medium) was “positive control for NF-κB activation” and the “kinase activity of IKKα” value (IKKα) was “little effect”.
For “SC-JAG: scrambled control peptide without agonist activity (SEQ ID NO:13) (RCGPDCFDNYGRYKYCF; Scrambled JAG peptide) [reference compound]”, the “terminal differentiation and cornification” value (epidermal equivalents; 40 μM added on day 0) was “not” and the “kinase activity of IKKα” value (IKKα) was “little effect”.
